Reference: ChEMBL document CHEMBL1201862, “PubChem BioAssay data set” (2004)
Blank lines part the entries; values can stand above or below the molecule they belong to. Activity calls are given as the source filed them.

Assays:
Aminopeptidase N = target: T1, Aminopeptidase N (Plasmodium falciparum FcB1/Columbia, UniProt O96935); assay: malaria alanyl aminopeptidase activity blockers – biochemical, fluorogenic H-Leu-NHMec substrate, 1536-well (AID 1445); design: species or system Plasmodium falciparum 3D7, 3D7
T1 sequence (O96935 whole entry): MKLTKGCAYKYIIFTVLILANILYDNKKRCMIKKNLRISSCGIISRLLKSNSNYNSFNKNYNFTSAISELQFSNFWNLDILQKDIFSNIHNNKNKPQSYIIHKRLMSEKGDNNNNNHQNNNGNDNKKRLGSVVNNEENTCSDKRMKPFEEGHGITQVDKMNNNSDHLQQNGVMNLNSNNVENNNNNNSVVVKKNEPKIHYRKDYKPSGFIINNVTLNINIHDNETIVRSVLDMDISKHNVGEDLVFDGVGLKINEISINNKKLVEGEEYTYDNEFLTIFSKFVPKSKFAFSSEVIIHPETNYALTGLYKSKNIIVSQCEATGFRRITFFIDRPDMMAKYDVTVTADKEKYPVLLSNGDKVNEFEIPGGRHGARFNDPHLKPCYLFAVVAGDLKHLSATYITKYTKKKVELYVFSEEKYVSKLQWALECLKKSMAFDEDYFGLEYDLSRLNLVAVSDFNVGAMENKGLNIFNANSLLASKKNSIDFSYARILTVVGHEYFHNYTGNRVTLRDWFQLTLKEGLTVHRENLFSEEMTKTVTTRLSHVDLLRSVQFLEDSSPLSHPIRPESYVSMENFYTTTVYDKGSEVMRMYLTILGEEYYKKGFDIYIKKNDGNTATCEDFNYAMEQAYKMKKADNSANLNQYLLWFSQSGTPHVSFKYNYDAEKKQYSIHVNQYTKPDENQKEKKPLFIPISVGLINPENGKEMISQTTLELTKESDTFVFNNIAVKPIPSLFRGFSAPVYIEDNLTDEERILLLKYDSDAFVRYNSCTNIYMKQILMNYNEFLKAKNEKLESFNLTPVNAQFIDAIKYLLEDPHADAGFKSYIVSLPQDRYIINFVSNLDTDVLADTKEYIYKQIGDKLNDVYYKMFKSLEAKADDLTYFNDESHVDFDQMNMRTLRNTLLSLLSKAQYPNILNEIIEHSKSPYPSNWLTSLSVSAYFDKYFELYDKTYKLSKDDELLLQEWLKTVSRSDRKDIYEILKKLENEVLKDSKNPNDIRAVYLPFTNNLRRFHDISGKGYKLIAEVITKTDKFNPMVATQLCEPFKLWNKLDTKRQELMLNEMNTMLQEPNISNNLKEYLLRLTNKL

[1] = P. falciparum Dd2 growth inhibitors, dose response, SYBR Green, cherry-picked samples (AID 1159567); assay type: functional, cell-based
[2] = Dd2 malaria parasite growth inhibition potency – SYBR Green, dry powder samples, dose response (AID 1159566); assay type: functional, cell-based;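 further: potency for growth inhibition with lower SYBR green DNA signal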
[3] = growth inhibition of yeast DHODH-expressing 3D7 parasites – SYBR Green, dry powder samples, dose response (AID 1159570); assay type: functional, cell-based;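 further: parasite growth measured after 72 hours of compound exposure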
[4] = growth inhibition of PfATP4-mutant resistant parasites – NITD609-resistant line, SYBR Green, dry powder, dose response (AID 1159571); assay type: functional, cell-based;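 further: parasites synchronized at ring stage by sorbitol before testing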
[5] = toxicity to human hepatoma HepG2 cells – cell-based, cherry-picked samples, cytotoxicity control, dose response (AID 1159577); assay type: functional
Genome polyprotein = Genome polyprotein (dengue virus type 2, UniProt P29990); assay: flavivirus cap methylation enzyme inhibition – biochemical, confirmation dose response, primary screen (AID 588689); assay type: functional
Genome polyprotein, sequence (P29990 2492-3391 limits assumed): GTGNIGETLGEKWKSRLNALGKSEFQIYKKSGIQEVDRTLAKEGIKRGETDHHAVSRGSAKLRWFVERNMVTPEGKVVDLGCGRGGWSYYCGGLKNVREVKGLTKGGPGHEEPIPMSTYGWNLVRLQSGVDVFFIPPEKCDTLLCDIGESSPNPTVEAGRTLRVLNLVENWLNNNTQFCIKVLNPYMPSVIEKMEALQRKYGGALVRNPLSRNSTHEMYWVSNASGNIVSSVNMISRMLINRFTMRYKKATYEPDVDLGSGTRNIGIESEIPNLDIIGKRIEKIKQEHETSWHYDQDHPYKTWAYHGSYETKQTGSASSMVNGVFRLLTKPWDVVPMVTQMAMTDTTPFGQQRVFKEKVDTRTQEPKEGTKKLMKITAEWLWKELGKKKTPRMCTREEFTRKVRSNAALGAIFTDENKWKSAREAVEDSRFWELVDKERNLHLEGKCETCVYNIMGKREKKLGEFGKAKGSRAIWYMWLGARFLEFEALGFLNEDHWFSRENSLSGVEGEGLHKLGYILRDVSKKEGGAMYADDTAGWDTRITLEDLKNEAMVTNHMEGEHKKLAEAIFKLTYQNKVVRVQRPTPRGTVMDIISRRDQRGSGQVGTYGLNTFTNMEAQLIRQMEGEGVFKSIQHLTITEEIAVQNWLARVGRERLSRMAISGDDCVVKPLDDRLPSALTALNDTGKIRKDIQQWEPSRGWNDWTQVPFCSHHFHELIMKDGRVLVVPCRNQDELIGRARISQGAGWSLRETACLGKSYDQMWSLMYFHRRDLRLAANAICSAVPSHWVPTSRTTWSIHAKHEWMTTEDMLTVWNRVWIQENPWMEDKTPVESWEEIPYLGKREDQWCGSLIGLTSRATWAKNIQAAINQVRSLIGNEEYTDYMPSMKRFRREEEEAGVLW

[6] = Dd2 parasite growth inhibition in erythrocytes – SYBR Green, dry powder samples, set 9, dose response (AID 1159568); assay type: functional, cell-based
[7] = target: T2, Short transient receptor potential channel 4 (Mus musculus, UniProt Q9QUQ5); assay: calcium entry via TRPC4 opening agents – cell-based, HEK293 TRPC4/mu-opioid, Fluo-4 calcium, dose response (AID 434937); assay type: functional
T2 sequence (Q9QUQ5 whole entry): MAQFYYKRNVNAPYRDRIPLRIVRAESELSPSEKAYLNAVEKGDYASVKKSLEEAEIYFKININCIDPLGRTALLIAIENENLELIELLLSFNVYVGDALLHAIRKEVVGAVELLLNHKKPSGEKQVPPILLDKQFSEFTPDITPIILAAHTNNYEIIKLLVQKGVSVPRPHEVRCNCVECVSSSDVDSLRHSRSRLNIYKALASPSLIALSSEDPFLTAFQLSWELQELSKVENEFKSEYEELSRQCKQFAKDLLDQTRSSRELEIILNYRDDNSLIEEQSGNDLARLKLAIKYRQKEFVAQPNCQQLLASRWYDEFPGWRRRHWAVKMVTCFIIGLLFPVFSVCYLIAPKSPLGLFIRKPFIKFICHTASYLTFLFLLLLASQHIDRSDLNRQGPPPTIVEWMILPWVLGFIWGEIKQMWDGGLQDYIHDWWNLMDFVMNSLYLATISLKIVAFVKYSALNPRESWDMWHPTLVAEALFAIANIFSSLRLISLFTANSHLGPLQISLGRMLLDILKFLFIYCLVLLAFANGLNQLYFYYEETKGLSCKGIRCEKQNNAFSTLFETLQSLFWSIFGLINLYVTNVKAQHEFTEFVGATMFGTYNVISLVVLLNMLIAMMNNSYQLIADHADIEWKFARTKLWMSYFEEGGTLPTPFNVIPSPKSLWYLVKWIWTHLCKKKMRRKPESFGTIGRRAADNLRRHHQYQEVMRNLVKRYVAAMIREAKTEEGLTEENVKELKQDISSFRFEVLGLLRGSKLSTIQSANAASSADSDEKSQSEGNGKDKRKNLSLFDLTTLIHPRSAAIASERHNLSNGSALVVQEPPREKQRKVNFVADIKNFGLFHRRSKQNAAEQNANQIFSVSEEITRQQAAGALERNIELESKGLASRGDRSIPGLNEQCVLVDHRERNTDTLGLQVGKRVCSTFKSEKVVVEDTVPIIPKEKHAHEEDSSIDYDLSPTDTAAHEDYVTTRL

[8] = target: T2, Short transient receptor potential channel 4; assay: block of DAMGO-driven TRPC4 calcium entry – cell-based, HEK293 TRPC4/mu-opioid, Fluo-4 calcium, dose response (AID 434942); assay type: functional;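 further: potency of inhibitors blocking the TRPC4 calcium response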
Estrogen receptor beta = Estrogen receptor beta (Homo sapiens, UniProt Q92731);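 further: recombinant ER-beta bound to coactivator SRC1 peptide in presence of estradiol agonist; inhibitors block coactivator peptide binding and lower the FRET signal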
Estrogen receptor beta, sequence (Q92731 whole entry): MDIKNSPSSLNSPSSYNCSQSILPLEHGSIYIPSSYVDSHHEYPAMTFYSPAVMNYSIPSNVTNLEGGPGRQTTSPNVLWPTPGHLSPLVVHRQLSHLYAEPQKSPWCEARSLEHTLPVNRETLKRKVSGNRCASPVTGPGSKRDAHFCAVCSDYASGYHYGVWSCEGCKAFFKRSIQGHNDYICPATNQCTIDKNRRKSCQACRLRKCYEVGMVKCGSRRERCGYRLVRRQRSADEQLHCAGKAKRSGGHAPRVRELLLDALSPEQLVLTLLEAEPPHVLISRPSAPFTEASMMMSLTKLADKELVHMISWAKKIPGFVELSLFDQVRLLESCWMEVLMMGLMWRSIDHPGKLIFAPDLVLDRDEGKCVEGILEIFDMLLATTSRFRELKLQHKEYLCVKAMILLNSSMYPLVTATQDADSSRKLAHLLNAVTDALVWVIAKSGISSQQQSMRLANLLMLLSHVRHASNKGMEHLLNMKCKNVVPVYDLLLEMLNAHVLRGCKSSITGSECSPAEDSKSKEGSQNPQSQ

[9] = Trypanosoma cruzi growth suppression in host cells – NIH3T3 host cells, beta-gal luminescence, confirmation (AID 2044); assay type: functional, cell-based;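 further: intracellular parasites grown in NIH/3T3 mouse fibroblasts as host cells; luminescent beta-galactosidase reporter signal from transgenic T. cruzi replicating inside host cells; inhibitors lower the luminescence signal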
[10] = NIH3T3 cell viability loss – ATP luminescence, mouse fibroblasts, counter-screen, dose response (AID 2010); assay type: functional, cell-based;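 further: cells exposed to compound for about 90 hours before reading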

SMILES: O=C(Cc1cc(=O)oc2cc(O)ccc12)NCC1CCC(C(=O)O)CC1 (stereo unspecified)
IC50 (Aminopeptidase N): 65.9 µM (active)

SMILES: Cc1nc(N2[C@H](CO)[C@H](c3ccccc3)[C@H]2CNCC2CCCC2)sc1C
AC50 [1]: 2.26 µM (active)
AC50 [2]: 1.12 µM (active)
AC50 [3]: 1.4 µM (active)
AC50 [4]: 1.42 µM (active)
AC50 [5]: > 39 µM (inactive)

SMILES: CO[C@H]1CN(C)C(=O)c2cc(NC(=O)c3cccc(F)c3)ccc2OC[C@H](C)N(C)C[C@H]1C
AC50 [6]: 22.8 µM (active)

SMILES: O=C(Nc1ccc2c(c1)[C@@H]1C[C@@H](CC(=O)N3CCc4ccccc4C3)O[C@@H](CO)[C@@H]1O2)c1ccc2c(c1)OCO2
AC50 [6]: 13 µM (active)

SMILES: COc1ccccc1NC(=O)N1C[C@@H]2N[C@H](C1)[C@H]2c1ccc(/C=C/c2ccccc2)cc1
AC50 [1]: 3.04 µM (active)
AC50 [6]: 4.56 µM (active)

SMILES: O=C(NCc1cccc(F)c1)C1CCN(C(=O)c2sccc2-n2cccc2)CC1
IC50 (Aminopeptidase N): 100 µM (active)

SMILES: COc1ccc(C(C(=O)NC2CCCC2)N(C(=O)c2ccco2)c2ccc3c(c2)OCO3)cc1OC (stereo unspecified)
IC50 (Estrogen receptor beta): > 50 µM (not active)

SMILES: CCCCC(CC)C(=O)Nc1ncc([N+](=O)[O-])s1 (stereo unspecified)
EC50 [9]: 1.29 µM (active)
EC50 [10]: > 60 µM (not active)
EC50 [8]: 7.5 µM (active)

Other lines, results leading:

IC50 (Aminopeptidase N): 23.7 µM (active)
IC50 (Genome polyprotein): 54.7 µM (active)
SMILES: O=C1/C(=C/c2nc3ccccc3[nH]2)SC(=S)N1NS(=O)(=O)c1ccccc1

EC50 [7]: 0.668 µM (active)
EC50 [8]: 0.0533 µM (active)
SMILES: COc1ccc(C(CNC(=O)Cc2ccc3ccccc3c2)N(C)C)cc1 (stereo unspecified)

IC50 (Estrogen receptor beta): > 50 µM (not active)
SMILES: CC(C)Cn1c(-c2cccs2)nc2ccccc21

IC50 (Aminopeptidase N): 89.3 µM (active)
SMILES: O=C(NCc1cccs1)C1CCN(S(=O)(=O)c2ccc(Cl)cc2)CC1
